The values that follow come from patent US20020133846A1, “Method for protecting plants” (priority 1996, published 2002).

In assay [1] the test system is Peronospora parasitica Emwa. Nature of the assay: Action against Peronospora parasitica Emwa in Arabidopsis thaliana (Ws), rRNA fungal probe. It counts as in vivo. The settings on record: Hyaloperonospora parasitica, in Arabidopsis thaliana, Table 30, Ws, read-out: Fungal Growth Inhibition % O (observed).
The test system of assay [2] is Peronospora parasitica NoCo2. Briefly: Action against Peronospora parasitica NoCo2 in Arabidopsis thaliana (Col-0), rRNA fungal probe. It counts as in vivo. The settings on record: Table 29, Col-0, metalaxyl alone 0.1 mg/l.
The subject of another assay is Phytophthora infestans. It counts as in vivo.
The subject of assay [3] is Peronospora parasitica isolate Emwa. Briefly: Action against Peronospora parasitica in Arabidopsis overexpressing NIM1 (lines 6E, 7C) and wild-type Ws. In kind it is in vivo. The settings on record: Hyaloperonospora parasitica, in Arabidopsis thaliana, Table 36, wt Ws, read-out: Fungal Growth Inhibition % O (observed). From the text: The plant lines used in this example (6E and 7C) were generated from transformation of wild-type Arabidopsis thaliana plants (ecotype Ws) with the BamHI-HindIII NIM1 genomic fragment (SEQ ID NO:1—bases 1249-5655), as described above in Example 21. The fungicides metalaxyl, fosetyl, and copper hydroxide, formulated as 25%, 80%, and 70% active ingredient (ai), respectively, with a wettable powder carrier, were applied as fine mist to leaves of three week-old transgenic Ws plants constitutively expressing the NIM1 gene. The wettable powder alone was applied as a control. Three days later, plants were inoculated with a Peronospora parasitica isolate Emwa conidial suspension (1-2×10^5 spores/ml), as described in Delaney et al. (1995). Following inoculation, plants were covered to maintain high humidity and were placed in a Percival growth chamber at 17° C. with a 14-hr day/10-hr night cycle (Uknes et al., 1993). Tissue was harvested 8 days after inoculation.
Fungal infection progression was followed for 12 days by viewing under a dissecting microscope to score development of conidiophores (Delaney, et al. (1994); Dietrich, et al. (1994)). Lactophenoltrypan blue staining of individual leaves was carried out to observe fungal growth within leaf tissue. Fungal growth was quantified using a rRNA fungal probe obtained by PCR according to White et al. (1990; PCR Protocols: A guide to Methods and Application, 315-322) using primers NS1 and NS2 and P. parasitica EmWa DNA as templates. RNA was purified from frozen tissue by phenol/chloroform extraction following lithium chloride precipitation (Lagrimini et al, 1987: PNAS, 84: 7542-7546). Samples (7.5 μg) were separated by electrophoresis through formaldehyde agarose gels and blotted to nylon membranes (Hybond-N+, Amersham) as described by Ausbel et al. (1987). Hybridizations and washing were according to Church and Gilbert (1984, PNAS, 81: 1991-1995). Relative amounts of the transcript were determined using a Phosphor Imager (Molecular Dynamics, Sunnyvale, Calif.) following manufacturers instructions. Sample loading was normalized by probing stripped filter blots with the constitutively expressed b-tubulin Arabidopsis cDNA.

The test system of assay [4] is Pseudoperonospora cubensis. Nature of the assay: Action against Pseudoperonospora cubensis in cucumbers. It counts as in vivo.
The subject of assay [5] is Peronospora parasitica NoCo2. Nature of the assay: whole plant or invertebrate. It counts as in vivo. The settings on record: Hyaloperonospora parasitica, in Arabidopsis thaliana, read-out: Fungal Growth Inhibition % O (observed), Table 33, wt Col-0, metalaxyl 12.5 mg/l.
In a further assay the test system is Pyricularia oryzae. In kind it is in vivo.
The next assay deals with Cercospora nicotianae. Briefly: Action against Cercospora nicotianae on tobacco plants. It counts as in vivo.
A further assay deals with Puccinia recondita. Nature of the assay: Action against Puccinia recondita in wheat.
For assay [6], the system named is Colletotrichum lagenarium. Nature of the assay: Action against Colletotrichum lagenarium on Cucumis sativus L., soil application. In kind it is in vivo.
Assay [7] concerns Erysiphe graminis. Briefly: Action against Erysiphe graminis on barley (residual-protective / systemic).
Procedure: Residual-protective action: Barley plants about 8 cm in height were sprayed to drip point with an aqueous spray mixture (max. 0.02 % active ingredient) and were dusted 3 to 4 days later with conidia of the fungus. The infected plants were stood in a greenhouse at 22°. Fungus infestation was generally evaluated 10 days after infection.
Systemic action: Barley plants about 8 cm in height were watered with an aqueous spray mixture (max. 0.002 % active ingredient, based on the volume of the soil). […] The plants were dusted with conidia of the fungus 3 to 4 days later. The infected plants were stood in a greenhouse at 22°. Fungus infestation was generally evaluated 10 days after infection.
For assay [8], the system named is Colletotrichum lagenarium. Nature of the assay: Action against Colletotrichum lagenarium on Cucumis sativus L., foliar application. In kind it is in vivo.
In a further assay the test system is Alternaria solani. Briefly: Action against Alternaria solani in tomatoes in the open.
In assay [9] the test system is Erysiphe graminis. Nature of the assay: Action against Erysiphe graminis in wheat, field trials.
Procedure: In field trials (10 m^2), winter wheat in the growth phase was sprayed with a spray mixture prepared with a wettable powder of the active ingredient. Infection was naturally. 10 days post-infection, the fungus infestation was assessed.
Another assay deals with Peronospora tabacina. Nature of the assay: Action against Peronospora tabacina on tobacco plants.
The next assay relates to Mycosphaerella fijiensis. Nature of the assay: Action against Mycosphaerella fijiensis in bananas. The settings on record: Table 23, comp. II alone 50 g a.i. per ha.
A further assay has as its system Colletotrichum sp. Briefly: Action against Colletotrichum sp. (anthracnose) on chili, field. It counts as in vivo. The settings on record: Table 16, chili fruits after fifth spraying, comp. II alone 100 ppm. From the text:
Effects on crop yield: In a plot of land about 10 m^2 (test location: Cikampek, Java, Indonesia), chili plants were sprayed a total of 7 times at intervals of about 7 days with 500-700 liters of spray mixture per hectare. Three days after the first spraying, the plants were infected artificially with the fungus.

Assay [10] in a line: Action on crop yield of chili, field. It counts as in vivo. The settings on record: in vivo.
The next assay has as its system Cercospora sp. Briefly: Action against Cercospora sp. (leaf spot) on chili, field. The settings on record: Table 17, leaves after sixth spraying, comp. II alone 100 ppm. It counts as in vivo.

Where two headings read alike, the source gives them in different places.

Procedure for Alternaria solani: Tomato plants on a 7 m^2 plot were sprayed at 7-day intervals with a spray mixture prepared wettable powder of the active ingredient; in total 9 times. Infection was naturally. For ion, the leaf infested with the fungus was measured.
Procedure for Mycosphaerella fijiensis: 40 banana plants in a 300 m^2 plot were sprayed at 17-19 day intervals with a spray mixture prepared with the wettable powder of the active ingredient; in total 6 times. Infection was naturally. For evaluation, the leaf infested with the fungus was measured.
Procedure for Peronospora tabacina: Tobacco plants (6 weeks old) were sprayed with a formulated solution of the test compound. Four days after treatment, the plants were inoculated with a sporangia suspension of the fungus, kept at high humidity for 4 to 5 days and then incubated further under a normal day/night sequence. Evaluation of the symptoms in the tests was based on the leaf surface infested with fungus. The infestation of the untreated plants corresponded to 0 % action.
Procedure for Puccinia recondita: 7-day-old wheat plants were sprayed to drip point with a spray mixture prepared from a formulated active ingredient, or combination of active ingredients. After 4 days, the treated plants were infected with a conidia suspension of the fungus, and the treated plants were subsequently incubated for 2 days at a relative atmospheric humidity of 90-100% and 20 C. 10 days post-infection, the fungus infestation was assessed.

For `COCC(=O)N(c1c(C)cccc1C)C(C)C(=O)OC` (racemic) [metalaxyl], the inhibition at 0.1 µg/mL in assay [1] (metalaxyl alone 0.1 mg/l) was determined as 50%; in assay [2] (Hyaloperonospora parasitica, in Arabidopsis thaliana, read-out: Fungal Growth Inhibition % O (observed)) it was 0%. The inhibition at 0.5 µg/mL in assay [1] (metalaxyl alone 0.5 mg/l) stood at 50%. Besides, the inhibition at 2.5 µg/mL in assay [1] (metalaxyl alone 2.5 mg/l) was 75%. In addition, the “Fungal Growth Inhibition % O (observed)” value in assay [2] is reported as “no fungal growth inhibition”. In addition, the “% action O (observed)” value in the assay on Phytophthora infestans (Table 25, comp. II alone 0.1 mg a.i. per liter) stood at 13%; with Phytophthora infestans (Table 25, comp. II alone 1 mg a.i. per liter), 23%; in the assay with Phytophthora infestans (Table 25, comp. II alone 10 mg a.i. per liter) it was 35%; in the assay on Phytophthora infestans (Table 25, comp. II alone 50 mg a.i. per liter), 68%; with Phytophthora infestans (Table 26, comp. II alone 1 mg a.i. per liter), 13%; with Phytophthora infestans (Table 26, comp. II alone 10 mg a.i. per liter) it was 33%. The “% action O (observed)” value was 63% with Phytophthora infestans (Table 26, comp. II alone 50 mg a.i. per liter); 83% in the assay with Phytophthora infestans (Table 26, comp. II alone 100 mg a.i. per liter); 31% in [4] (Table 27, comp. II alone 0.5 mg a.i. per liter); 66% in [4] (Table 27, comp. II alone 5 mg a.i. per liter); 91% in assay [4] (Table 27, comp. II alone 50 mg a.i. per liter). For the same molecule, the inhibition at 1.2 µg/mL in assay [3] (metalaxyl 0.0012 g/l) is 27%. The inhibition at 12.5 µg/mL in [3] (metalaxyl 0.0125 g/l) stood at 59%; in [5], 52.7%.

As to `O=C1CCc2cccc3c2N1CC3` [Compound IIJ, 1,2,5,6-tetrahydro-4H-pyrrolo[3,2,1-ij]quinolin-4-one], the “% action O (observed)” value in the assay with Pyricularia oryzae (Table 14, comp. II alone 0.75 kg a.i. per ha) was 46%; in the assay on Pyricularia oryzae (Table 14, comp. II alone 1.5 kg a.i. per ha) it was 82%.

On to `O=C(O)c1cccc2nnsc12` [benzothiadiazole-7-carboxylic acid], for which the “% action O (observed)” value in the assay with Cercospora nicotianae (Table 11, comp. I alone 0.2 kg a.i. per ha) is reported as 0%; with Cercospora nicotianae (Table 11, comp. I alone 0.6 kg a.i. per ha), 3%; in the assay with Cercospora nicotianae (Table 11, comp. I alone 2 kg a.i. per ha) it was 69%; in the assay on Cercospora nicotianae (Table 11, comp. I alone 6 kg a.i. per ha), 79%; in the assay with Cercospora nicotianae (Table 12, comp. I alone 2 kg a.i. per ha), 69%; in the assay on Cercospora nicotianae (Table 12, comp. I alone 6 kg a.i. per ha), 79%. Further, the “% action O (observed)” value in the assay with Cercospora nicotianae (Table 12, comp. I alone 20 kg a.i. per ha) stood at 100%; with Puccinia recondita (Table 20, comp. I alone 6 kg a.i. per ha) it was 20%; with Puccinia recondita (Table 20, comp. I alone 20 kg a.i. per ha), 40%; in the assay with Phytophthora infestans (Table 26, comp. I alone 0.1 mg a.i. per liter), 0%; with Phytophthora infestans (Table 26, comp. I alone 0.5 mg a.i. per liter), 9%; in the assay on Phytophthora infestans (Table 26, comp. I alone 1 mg a.i. per liter) it was 22%. Also, the “% action O (observed)” value with Phytophthora infestans (Table 26, comp. I alone 5 mg a.i. per liter) is on record as 45%; in assay [6] (Table 5, comp. I alone 0.006 ppm), 0%; in assay [6] (Table 5, comp. I alone 0.02 ppm) it was 40%; in assay [6] (Table 5, comp. I alone 0.06 ppm) it was 49%; in assay [6] (Table 5, comp. I alone 0.2 ppm) it was 91%; in the assay with Erysiphe graminis [7] (Table 1, comp. I alone 0.6 ppm), 0%. Moreover, the “% action O (observed)” value with Erysiphe graminis [7] (Table 1, comp. I alone 2 ppm) amounted to 40%; with Erysiphe graminis [7] (Table 1, comp. I alone 6 ppm) it was 89%; with Erysiphe graminis [7] (Table 2, comp. I alone 0.6 ppm), 14%; in the assay with Erysiphe graminis [7] (Table 2, comp. I alone 2 ppm), 27%; in assay [4] (Table 27, comp. I alone 0.05 mg a.i. per liter), 0%; in assay [4] (Table 27, comp. I alone 0.5 mg a.i. per liter) it was 6%. The “% action O (observed)” value in [4] (Table 27, comp. I alone 5 mg a.i. per liter) stood at 66%; in [8] (Table 4, comp. I alone 0.2 ppm), 5%; in assay [8] (Table 4, comp. I alone 2 ppm) it was 22%; in assay [8] (Table 6, comp. I alone 0.2 ppm), 3%; in assay [8] (Table 6, comp. I alone 0.6 ppm), 51%; in assay [8] (Table 7, comp. I alone 0.06 ppm), 16%. In addition, the “% action O (observed)” value came to 22% in assay [8] (Table 7, comp. I alone 0.2 ppm) and 60% in [8] (Table 7, comp. I alone 6 ppm).

For `Cc1cc(C2CC2)nc(Nc2ccccc2)n1` [cyprodinil, 4-cyclopropyl-6-methyl-N-phenyl-2-pyrimidinamine], the “% action O (observed)” value in the assay on Alternaria solani (Table 24, comp. II alone 12.5 g a.i. per ha) was determined as 30%; in the assay on Alternaria solani (Table 24, comp. II alone 25 g a.i. per ha), 51%; with Erysiphe graminis [9] (Table 22, comp. II alone 50 g a.i. per ha), 2%; in the assay with Erysiphe graminis [9] (Table 22, comp. II alone 100 g a.i. per ha) it was 31%.

For `COc1ccc(C(=CC(=O)N2CCOCC2)c2ccc(Cl)cc2)cc1OC` [dimethomorph, 4-[3-(4-chlorophenyl)-3-(3,4-dimethoxyphenyl)acryloyl]morpholine], the “% action O (observed)” value with Peronospora tabacina (Table 28, comp. II alone 0.3 ppm) was found to be 52%; with Peronospora tabacina (Table 28, comp. II alone 1 ppm), 52%.

On to `CCCC1COC(Cn2cncn2)(c2ccc(Cl)cc2Cl)O1` (stereo not drawn) [propiconazole, 1-[2-(2,4-dichlorophenyl)-4-propyl-1,3-dioxolan-2-ylmethyl]-1H-1,2,4-triazole], for which the “% action O (observed)” value is reported as 26% in the assay on Mycosphaerella fijiensis; 2% with Erysiphe graminis [9] (Table 21, comp. II alone 50 g a.i. per ha); 31% with Erysiphe graminis [9] (Table 21, comp. II alone 100 g a.i. per ha); 10% in the assay with Puccinia recondita (Table 19, comp. II alone 5 mg a.i. per liter).

“manganese ethylenebis(dithiocarbamate)polymer-zinc complex [mancozeb]”: the “% action O (observed)” value in the assay with Colletotrichum sp. turned out to be 12%; with Cercospora sp., 8%. In addition, the “Crop yield in kg per hectare O (observed)” value in assay [10] was found to be 8 kg per hectare.
